Measured values published in US20070010671A1, “Novel quinazoline derivatives and methods of treatment related to the use thereof” (priority 2003, published 2007).

Target: MCH receptor (Homo sapiens, UniProt Q99705)
Experiment: High throughput functional screening FLIPR/FDSS6000: inhibition of MCH-evoked intracellular Ca2+ changes
Type: cell-based
Settings: class by percent of control at 10^−7 M or by IC50; read-out: class
Summary of the method: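 Antagonism was measured as inhibition of calcium responses to 50 nM MCH, monitored 290 s at ex 488/em 530 nm on FLIPR or FDSS6000. Beforehand, cells bearing a constitutively active MCH receptor received Fluo4-AM (4 μM, 1 h, 37 °C) with probenecid, and test compound for 3 min.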

Row | Compound | IC50 [nM]
1 | CN(C)c1nc(N[C@H]2CC[C@@H](NC(=O)[C@H](O)c3cccc(Cl)c3)CC2)nc2ccccc12 [Example 1111, (2R)-2-(3-chlorophenyl)-N-(cis-4-{[4-(dimethylamino)-quinazolin-2-yl]amino}cyclohexyl)-2-hydroxyacetamide] | < 50
2 | CN(C)c1nc(N[C@H]2CC[C@@H](NC(=O)[C@@H](O)c3ccccc3Cl)CC2)nc2ccccc12 [Example 1114, (2S)-2-(2-chlorophenyl)-N-(cis-4-{[4-(dimethylamino)quinazolin-2-yl]amino}cyclohexyl)-2-hydroxyacetamide] | < 50
3 | COc1cc(OC)cc(C(=O)NC[C@@H]2CC[C@H](Nc3nc(N(C)C)c4ccccc4n3)C2)c1 [Example 1120, N-[((1R,3S)-3-{[4-(dimethylamino)quinazolin-2-yl]amino}cyclopentyl)methyl]-3,5-dimethoxybenzamide] | < 50
4 | CN(C)c1nc(N[C@H]2CC[C@@H](CNC(=O)c3ccc(Cl)cc3)C2)nc2ccccc12 [Example 1121, 4-chloro-N-[((1R,3S)-3-{[4-(dimethylamino)quinazolin-2-yl]amino}cyclopentyl)methyl]benzamide] | 50 to 200
5 | CN(C)c1nc(N[C@H]2CC[C@@H](CNC(=O)c3cccc(Cl)c3)C2)nc2ccccc12 [Example 1122, 3-chloro-N-[((1R,3S)-3-{[4-(dimethylamino)quinazolin-2-yl]amino}cyclopentyl)methyl]benzamide] | < 50
6 | CN(C)c1nc(N[C@H]2CC[C@@H](CNC(=O)c3c(Cl)cc(Cl)cc3Cl)C2)nc2ccccc12 [Example 1123, 2,4,6-trichloro-N-[((1R,3S)-3-{[4-(dimethylamino)quinazolin-2-yl]amino}cyclopentyl)methyl]benzamide] | < 50
7 | CN(C)c1nc(N[C@H]2CC[C@@H](CNC(=O)c3ccc(C(F)(F)F)c(F)c3)C2)nc2ccccc12 [Example 1124, N-[((1R,3S)-3-{[4-(dimethylamino)quinazolin-2-yl]amino}-cyclopentyl)methyl]-3-fluoro-4-(trifluoromethyl)benzamide] | > 200
8 | CN(C)c1nc(N[C@H]2CC[C@@H](CNC(=O)c3ccc(C(F)(F)F)cc3F)C2)nc2ccccc12 [Example 1125, N-[((1R,3S)-3-{[4-(dimethylamino)quinazolin-2-yl]amino}-cyclopentyl)methyl]-2-fluoro-4-(trifluoromethyl)benzamide] | > 200
9 | CN(C)c1nc(N[C@H]2CC[C@@H](CNC(=O)c3cc(C(F)(F)F)ccc3C(F)(F)F)C2)nc2ccccc12 [Example 1126, N-[((1R,3S)-3-{[4-(dimethylamino)quinazolin-2-yl]amino}cyclopentyl)methyl]-2,5-bis(trifluoromethyl)benzamide] | > 200
10 | CN(C)c1nc(N[C@H]2CC[C@@H](CNC(=O)c3cccc(C(F)(F)F)c3)C2)nc2ccccc12 [Example 1127, N-[((1R,3S)-3-{[4-(dimethylamino)quinazolin-2-yl]amino}cyclopentyl)methyl]-3-(trifluoromethyl)benzamide] | < 50
11 | CN(C)c1nc(N[C@H]2CC[C@@H](CNC(=O)c3ccc(OC(F)(F)F)cc3)C2)nc2ccccc12 [Example 1128, N-[((1R,3S)-3-{[4-(dimethylamino)quinazolin-2-yl]amino}cyclopentyl)methyl]-4-(trifluoromethoxy)benzamide] | > 200
12 | CN(C)c1nc(N[C@H]2CC[C@@H](CNC(=O)c3cc(F)ccc3F)C2)nc2ccccc12 [Example 1129, N-[((1R,3S)-3-{[4-(dimethylamino)quinazolin-2-yl]amino}cyclopentyl)methyl]-2,5-difluorobenzamide] | 50 to 200
13 | CN(C)c1nc(N[C@H]2CC[C@@H](CNC(=O)c3cc(F)cc(F)c3)C2)nc2ccccc12 [Example 1130, N-[((1R,3S)-3-{[4-(dimethylamino)quinazolin-2-yl]amino}cyclopentyl)methyl]-3,5-difluorobenzamide] | < 50
14 | CN(C)c1nc(NC[C@@H]2CC[C@H](NC(=O)c3cccc(F)c3)C2)nc2ccccc12 [Example 1132, N-[(1S,3R)-3-({[4-(dimethylamino)quinazolin-2-yl]amino}methyl)cyclopentyl]-3-fluorobenzamide] | > 200
15 | CN(C)c1nc(NC[C@@H]2CC[C@H](NC(=O)c3ccc(F)cc3F)C2)nc2ccccc12 [Example 1133, N-[(1S,3R)-3-({[4-(dimethylamino)quinazolin-2-yl]amino}methyl)cyclopentyl]-2,4-difluorobenzamide] | > 200
16 | COc1cccc([C@@H](C)NC(=O)[C@H]2CC[C@@H](Nc3nc(N(C)C)c4ccccc4n3)CC2)c1 [Example 1137, cis-4-{[4-(dimethylamino)quinazolin-2-yl]amino}-N-[(1R)-1-(3-methoxyphenyl)ethyl]cyclohexanecarboxamide] | < 50
17 | C[C@@H](NC(=O)[C@H]1CC[C@@H](Nc2nc(N(C)C)c3ccccc3n2)CC1)c1ccc(Cl)cc1 [Example 1139, cis-N-[(1R)-1-(4-chlorophenyl)ethyl)-4-{[4-(dimethylamino)quinazolin-2-yl]amino}cyclohexanecarboxamide] | < 50
18 | C[C@H](NC(=O)[C@H]1CC[C@@H](Nc2nc(N(C)C)c3ccccc3n2)CC1)c1cccc2ccccc12 [Example 1141, cis-4-{[4-(dimethylamino)quinazolin-2-yl]amino}-N-[(1S)-1-(1-naphthyl)ethyl]cyclohexanecarboxamide] | < 50
19 | Cc1cc(C)cc(CNC(=O)[C@H]2CC[C@@H](Nc3nc(N(C)C)c4ccccc4n3)CC2)c1 [Example 1142, cis-4-{[4-(dimethylamino)quinazolin-2-yl]amino}-N-(3,5-dimethylbenzyl)cyclohexanecarboxamide] | < 50
20 | CN(C)c1nc(N[C@H]2CC[C@@H](C(=O)NCc3cccc(-c4ccccc4)c3)CC2)nc2ccccc12 [Example 1148, cis-N-(biphenyl-3-ylmethyl)-4-{[4-(dimethylamino)quinazolin-2-yl]amino}cyclohexanecarboxamide] | < 50
21 | CN(C)c1nc(N[C@H]2CC[C@@H](C(=O)NCc3ccc(C(F)(F)F)cc3)CC2)nc2ccccc12 [Example 1153, cis-4-{[4-(dimethylamino)quinazolin-2-yl]amino}-N-[4-(trifluoromethyl)benzyl]cyclohexanecarboxamide] | < 50

Next, values leading:

Row | IC50 [nM] | Compound
22 | < 50 | CN(C)c1nc(N[C@H]2CC[C@@H](C(=O)NCc3ccccc3)CC2)nc2ccccc12 [Example 1135, cis-N-benzyl-4-{[4-(dimethylamino)quinazolin-2-yl]amino}cyclohexanecarboxamide]
23 | < 50 | CN(C)c1nc(N[C@H]2CC[C@@H](C(=O)NCc3ccc(Cl)nc3)CC2)nc2ccccc12 [Example 1136, cis-N-[(6-chloropyridin-3-yl)methyl]-4-{[4-(dimethylamino)quinazolin-2-yl]amino}cyclohexanecarboxamide]
24 | 50 to 200 | Cc1ccc(CNC(=O)[C@H]2CC[C@@H](Nc3nc(N(C)C)c4ccccc4n3)CC2)cc1F [Example 1143, cis-4-{[4-(dimethylamino)quinazolin-2-yl]amino}-N-(3-fluoro-4-methylbenzyl)cyclohexanecarboxamide]
25 | < 50 | Cc1c(Cl)cccc1CNC(=O)[C@H]1CC[C@@H](Nc2nc(N(C)C)c3ccccc3n2)CC1 [Example 1144, cis-N-(3-chloro-2-methylbenzyl)-4-{[4-(dimethylamino)quinazolin-2-yl]amino}cyclohexanecarboxamide]
26 | 50 to 200 | Cc1ccc(Cl)cc1CNC(=O)[C@H]1CC[C@@H](Nc2nc(N(C)C)c3ccccc3n2)CC1 [Example 1145, cis-N-(5-chloro-2-methylbenzyl)-4-{[4-(dimethylamino)quinazolin-2-yl]amino}cyclohexanecarboxamide]
27 | < 50 | Cc1ccc(F)cc1CNC(=O)[C@H]1CC[C@@H](Nc2nc(N(C)C)c3ccccc3n2)CC1 [Example 1146, cis-4-{[4-(dimethylamino)quinazolin-2-yl]amino}-N-(5-fluoro-2-methylbenzyl)cyclohexanecarboxamide]
28 | < 50 | CN(C)c1nc(N[C@H]2CC[C@@H](C(=O)NCc3c(F)ccc(Cl)c3F)CC2)nc2ccccc12 [Example 1147, cis-N-(3-chloro-2,6-difluorobenzyl)-4-{[4-(dimethylamino)quinazolin-2-yl]amino}cyclohexanecarboxamide]
29 | < 50 | Cc1ccc(Cl)c(CNC(=O)[C@H]2CC[C@@H](Nc3nc(N(C)C)c4ccccc4n3)CC2)c1F [Example 1150, cis-N-(6-chloro-2-fluoro-3-methylbenzyl)-4-{[4-(dimethylamino)quinazolin-2-yl]amino}cyclohexanecarboxamide]
30 | < 50 | CN(C)c1nc(N[C@H]2CC[C@@H](C(=O)NCc3ccccc3F)CC2)nc2ccccc12 [Example 1151, cis-4-{[4-(dimethylamino)quinazolin-2-yl]amino}-N-(2-fluorobenzyl)cyclohexanecarboxamide]
31 | < 50 | CN(C)c1nc(N[C@H]2CC[C@@H](C(=O)NCc3c(F)cccc3F)CC2)nc2ccccc12 [Example 1152, cis-N-(2,6-difluorobenzyl)-4-{[4-(dimethylamino)quinazolin-2-yl]amino}cyclohexanecarboxamide]
32 | < 50 | CN(C)c1nc(N[C@H]2CC[C@@H](C(=O)NCc3cccc4ccccc34)CC2)nc2ccccc12 [Example 1154]
33 | < 50 | CN(C)c1nc(N[C@H]2CC[C@@H](C(=O)NCc3ccc(Cl)cc3)CC2)nc2ccccc12 [Example 1155, cis-N-(4-chlorobenzyl)-4-{[4-(dimethylamino)quinazolin-2-yl]amino}cyclohexanecarboxamide]
34 | < 50 | CN(C)c1nc(N[C@H]2CC[C@@H](C(=O)NCc3ccc(Cl)c(Cl)c3)CC2)nc2ccccc12 [Example 1156, cis-N-(3,4-dichlorobenzyl)-4-{[4-(dimethylamino)quinazolin-2-yl]amino}cyclohexanecarboxamide]
